# Source: PMC10011554, “BET inhibitor trotabresib in heavily pretreated patients with solid tumors and diffuse large B-cell lymphomas” (Nature Communications, 2023)
# Assay: Adverse events, DLTs, MTD and RP2D in phase I study CC-90010-ST-001 (NCI CTCAE v4.03)
# Format: in vivo
# Settings: for TRAE: ALT increased / TRAE: Anemia / TRAE: Any TRAE / TRAE: Asthenia / TRAE: Decreased appetite / TRAE: Dehydration / TRAE: Dermatitis acneiform / TRAE: Diarrhoea / TRAE: Dysgeusia / TRAE: Fatigue / TRAE: Hyperglycemia / TRAE: Hypertension / TRAE: Hyponatremia / TRAE: Hypophosphatemia / TRAE: Nausea / TRAE: Neutropenia / TRAE: Platelet count decreased / TRAE: Stomatitis / TRAE: Thrombocytopenia / TRAE: Vomiting: part A 45 mg/day
# Procedure: The primary endpoints of the study were the safety and tolerability of trotabresib, as well as the MTD and/or RP2D of trotabresib. Safety was assessed using the National Cancer Institute Common Terminology Criteria for Adverse Events v4.03[53].
# The decision to evaluate additional subjects within a dose cohort, a higher dose cohort, intermediate dose cohorts, smaller dose increments, alternate dosing schedules, or declare an MTD will also be determined by the SRC, based on their review of clinical and laboratory safety […]
# 7.2.4. Definition of a Subject Evaluable for DLT
# After the first dose is administered in any cohort during dose escalation, subjects in each cohort […]
# more than one subject per day will be enrolled in a given dose escalation cohort.
# A subject evaluable for DLT is defined as one that: […]
# without experiencing a DLT,
# Subjects non-evaluable for DLT will be replaced. Additional subjects within any dose cohort may be enrolled at the discretion of the SRC. Intra-subject dose escalation will not be allowed during the DLT assessment period.
# 7.2.5. Definition of Maximum Tolerated Dose (MTD) […]
# of MTD is described in Section 7.2.2.
# A variable dose cohort (eg, less frequent dosing) may be evaluated to accurately determine the MTD at the discretion of the SRC.
# 7.2.6. Definition of Dose-Limiting Toxicity (DLT) […]
# used as a guide for the grading of severity of adverse events. A DLT is defined as any of the following toxicities occurring within the DLT assessment unless the event can clearly be […]
# Do se-limiting toxicities are described below:
# • Hyperglycemia meeting any of the following criteria:
# − Grade 3 or greater fasting hyperglycemia (> 250 mg/dL) lasting > 4 days despite optimal medical treatment
# (1 picture or pasted object on this page, not shown here)
# − Hyperglycemia associated with diabetic ketoacidosis or nonketotic hyperosmolar coma regardless of glucose level
# − Hyperglycemia that necessitates dose reduction despite dose interruption and resolution to ≤ grade 1 hyperglycemia within two weeks as described in […]
# • Any Grade 4 non-hematologic toxicity of any duration
# • Any non-hematologic toxicity Grade ≥ 3 EXCEPT for:
# − Grade 3 diarrhea, nausea, or vomiting of ≤ 3 days duration (with optimal medical […]
# − Grade 3 rash of the acneiform, pustular or maculopapular type which resolves to […]
# level with resumption of study drug at the same dose (with optimal medical […]
# − Grade 3 fatigue which resolves to Grade ≤ 2 within 7 days of study drug […]
# the same dose (with optimal medical management).
# • Hematological toxicities as follows:
# − Grade 4 neutropenia lasting > 7 days
# − Grade 4 thrombocytopenia lasting > 7 days, Grade ≥ 3 thrombocytopenia with clinically significant bleeding
# • Any AE, Grade ≥ 2 not specified or exempt above, unless clearly determined to be unrelated to the drug, necessitating dose-level reduction during Cycle 1.
# Isolated laboratory changes without associated clinical signs or symptoms (eg, hypomagnesemia, hypermagnesemia, hypoalbuminemia, hypophosphatemia, lymphocyte count increased or decreased) may not be included in this definition. These findings will be discussed and reviewed […]
# 7.2.7. Criteria for Dose Escalation in the Next Cohort of Subjects
# During Part A, the dose escalation criteria are described in Section 7.2.2.
# 7.2.8. Definition of Stopping Criteria
# During Part A, the dose escalation stopping rules are in Section 7.2.2.
# 7.2.9. Permitted Study Drug Adjustments
# Dose reductions are permitted in any cycle, including Cycle 1.
# • Dose reductions that occur in Cycle 1 during dose escalation will constitute DLT as […]
# [1] = part A (N = 69), 02 Dec 2019 cutoff
structure (smiles),measurement,setting,value
Cn1cc(-c2cc(S(C)(=O)=O)ccc2OCC2CC2)c2ccccc2c1=O [trotabresib],MTD,"Schedule A, 3-days-on/11-days-off (180 mg per 28-day cycle)",30 mg/dose
same,MTD,"Schedule B, 4-days-on/24-days-off (180 mg per 28-day cycle)",45 mg/dose
same,MTD,"Schedule C, 2-days-on/5-days-off (120 mg per 28-day cycle)",15 mg/dose
same,dose intensity below which well tolerated,"human, in vivo",below 200 mg per 28-day cycle
same,further grade 3 and 4 TRAEs reported in one patient each,overall part A population,"Grade 3 essential hypertension, hypokalemia, lipase increased, liver function test abnormal, presyncope, skin hemorrhage, and grade 4 blood creatinine phosphokinase increased, diabetes mellitus, and inappropriate antidiuretic hormone secretion"
same,TRAE: ALT increased,any grade,0%
same,TRAE: Anemia,any grade,28.57%
same,TRAE: Any TRAE,any grade,85.71%
same,TRAE: Asthenia,any grade,14.29%
same,TRAE: Decreased appetite,any grade,0%
same,TRAE: Dehydration,any grade,0%
same,TRAE: Dermatitis acneiform,any grade,0%
same,TRAE: Diarrhoea,any grade,42.86%
same,TRAE: Dysgeusia,any grade,14.29%
same,TRAE: Fatigue,any grade,0%
same,TRAE: Hyperglycemia,any grade,0%
same,TRAE: Hypertension,any grade,0%
same,TRAE: Hyponatremia,any grade,0%
same,TRAE: Hypophosphatemia,any grade,0%
same,TRAE: Nausea,any grade,28.57%
same,TRAE: Neutropenia,any grade,0%
same,TRAE: Platelet count decreased,any grade,0%
same,TRAE: Stomatitis,any grade,42.86%
same,TRAE: Thrombocytopenia,any grade,71.43%
same,TRAE: Vomiting,any grade,14.29%
same,TRAE: ALT increased,grade 3,0%
same,TRAE: Anemia,grade 3,14.29%
same,TRAE: Any TRAE,grade 3,14.29%
same,TRAE: Asthenia,grade 3,0%
same,TRAE: Decreased appetite,grade 3,0%
same,TRAE: Dehydration,grade 3,0%
same,TRAE: Dermatitis acneiform,grade 3,0%
same,TRAE: Diarrhoea,grade 3,0%
same,TRAE: Dysgeusia,grade 3,0%
same,TRAE: Fatigue,grade 3,0%
same,TRAE: Hyperglycemia,grade 3,0%
same,TRAE: Hypertension,grade 3,0%
same,TRAE: Hyponatremia,grade 3,0%
same,TRAE: Hypophosphatemia,grade 3,0%
same,TRAE: Nausea,grade 3,0%
same,TRAE: Neutropenia,grade 3,0%
same,TRAE: Platelet count decreased,grade 3,0%
same,TRAE: Stomatitis,grade 3,0%
same,TRAE: Thrombocytopenia,grade 3,0%
same,TRAE: Vomiting,grade 3,0%
same,TRAE: ALT increased,grade 4,0%
same,TRAE: Anemia,grade 4,0%
same,TRAE: Any TRAE,grade 4,14.29%
same,TRAE: Asthenia,grade 4,0%
same,TRAE: Decreased appetite,grade 4,0%
same,TRAE: Dehydration,grade 4,0%
same,TRAE: Dermatitis acneiform,grade 4,0%
same,TRAE: Diarrhoea,grade 4,0%
same,TRAE: Dysgeusia,grade 4,0%
same,TRAE: Fatigue,grade 4,0%
same,TRAE: Hyperglycemia,grade 4,0%
same,TRAE: Hypertension,grade 4,0%
same,TRAE: Hyponatremia,grade 4,0%
same,TRAE: Hypophosphatemia,grade 4,0%
same,TRAE: Nausea,grade 4,0%
same,TRAE: Neutropenia,grade 4,0%
same,TRAE: Platelet count decreased,grade 4,0%
same,TRAE: Stomatitis,grade 4,0%
same,TRAE: Thrombocytopenia,grade 4,14.29%
same,TRAE: Vomiting,grade 4,0%
same,subjects with at least one DLT,part A (N = 69),6 subjects
same,Grade 3 or 4 TEAE anemia,[1],4.3%
same,Grade 3 or 4 TEAE arthralgia,[1],2.9%
same,Grade 3 or 4 TEAE asthenia,[1],5.8%
same,Grade 3 or 4 TEAE back pain,[1],2.9%
same,Grade 3 or 4 TEAE cognitive disorder,[1],2.9%
same,Grade 3 or 4 TEAE decreased performance status,[1],2.9%
same,Grade 3 or 4 TEAE decreased platelet count,[1],2.9%
same,Grade 3 or 4 TEAE dyspnea,[1],2.9%
same,Grade 3 or 4 TEAE fatigue,[1],2.9%
same,Grade 3 or 4 TEAE hyperglycemia,[1],5.8%
same,Grade 3 or 4 TEAE hypokalemia,[1],2.9%
same,Grade 3 or 4 TEAE hyponatremia,[1],2.9%
same,Grade 3 or 4 TEAE increased ALT,[1],4.3%
same,Grade 3 or 4 TEAE thrombocytopenia,[1],13.0%
same,TEAE abdominal pain,[1],14.5%
same,TEAE anemia,[1],15.9%
same,TEAE asthenia,[1],39.1%
same,TEAE constipation,[1],13.0%
same,TEAE decreased appetite,[1],24.6%
same,TEAE dermatitis acneiform,[1],13.0%
same,TEAE diarrhea,[1],42.0%
